The text below walks through data of US9073942B2, “Antiviral compounds with a heterotricycle moiety” (Lupin Limited, priority 2012, dated 2015).

Each structure is given as a SMILES string. Where only a bound is given, the exact number is not on record here.

In experiment [1] the test system is bicistronic genotype 1b replicon in Huh 7.5 cells. The experiment can be described thus: HCV replicon assay, genotype 1b (Huh7.5 Con1/SG-Neo(I)hRluc2aUb cell line, Renilla luciferase readout). The class given is cell-based. The settings on record: Hepatitis C virus, Huh7.5, 72 h, read-out: Gt1b IC50. The source says:
(§1) Anti-viral activity of the compounds of the invention was monitored using an HCV replicon assay. The Huh7.5 Con1/SG-Neo(I)hRluc2aUb cell line persistently expressing a bicistronic genotype 1b replicon in Huh 7.5 cells and the Huh7.5/J6/JFH1/EMCVIRES/hRlucNeo cell line expressing a bicistronic genotype 2a replicon in Huh 7.5 cells were obtained from Apath LLC. These cell lines were used to test inhibition of replicon levels by test compound using Renilla luciferase enzyme activity readout as a measure of viral replication efficiency.
(§2) Briefly, 7000-7500 cells were seeded in 96 well black clear bottom plates and allowed to adhere overnight. The next day each compound was added in triplicate to the cells at the desired concentration with a final DMSO concentration of 0.5%. Cells in media alone and cells incubated without drug with 0.5% DMSO served as controls. The plates were incubated for 72h at 37° C. prior to running the luciferase assay. Enzyme activity was measured using Renilla-Glo Luciferase Assay kit from Promega as per the manufacturer's instructions. The following equation was used to generate the percent inhibition value for each test concentration.
(§3) The IC50 value was determined using GraphPad Prism and the following equation: Y=Bottom+(Top−Bottom)(1+10^((Log IC50−X)*Hill slope))
(§4) IC50/values % inhibitions of compounds were determined 2-3 times in the replicon assays.
Background: In antiviral work, replicon cells carry a viral genome segment that copies itself.

For experiment [2], the system named is bicistronic genotype 2a replicon in Huh 7.5 cells. Put plainly: HCV replicon assay, genotype 2a (Huh7.5/J6/JFH1/EMCVIRES/hRlucNeo cell line, Renilla luciferase readout). The class given is cell-based. The following applies: Hepatitis C virus, Huh7.5, 72 h, read-out: Gt2a IC50.
Source text: as §1, §2, §3, §4

The term IC50 denotes the concentration at which inhibition is half-maximal. As for `COC(=O)N[C@H](C(=O)N1CCC[C@H]1c1ncc(-c2ccc3c(ccc4cc(-c5cnc([C@@H]6CCCN6C(=O)[C@@H](NC(=O)OC)C(C)C)[nH]5)sc43)c2)[nH]1)C(C)C` [Compound 7, dimethyl((2S,2′S)-((2S,2′S)-2,2′-(5,5′-(naphtho[1,2-b]thiophene-2,7-diyl)bis(1H-imidazole-5,2-diyl))bis(pyrrolidine-2,1-diyl))bis(3-methyl-1-oxobutane-2,1-diyl))dicarbamate], the concentration for half-maximal inhibition (IC50) in experiment [1] and in experiment [2] was 0.001 to 0.999 nM each time.

Consider `COC(=O)N[C@H](C(=O)N1CCC[C@H]1c1ncc(-c2ccc3c(ccc4cc(-c5cnc([C@@H]6[C@H]7CC[C@H](C7)N6C(=O)[C@@H](NC(=O)OC)C(C)C)[nH]5)sc43)c2)[nH]1)C(C)C` [Compound 11, methyl((S)-1-((S)-2-(5-(2-(2-((1R,3S,4S)-2-((S)-2-(methoxycarbonyl)amino-3-methylbutanoyl)-2-azabicyclo[2.2.1]heptan-3-yl)-1H-imidazol-5-yl)naphtho[1,2-b]thiophen-7-yl)-1H-imidazol-2-yl)pyrrolidin-1-yl)-3-methyl-1-oxobutan-2-yl)carbamate], for which the IC50 in experiment [1] and in experiment [2] was 0.001 to 0.999 nM in each case.

Turning to `COC(=O)N[C@H](C(=O)N1CCC[C@H]1c1nc(Cl)c(-c2ccc3c(c2)CCc2c-3sc(-c3[nH]c([C@@H]4CCCN4C(=O)[C@@H](NC(=O)OC)C(C)C)nc3Cl)c2Cl)[nH]1)C(C)C` [Compound 6, dimethyl((2S,2′S)-((2S,2′S)-2,2′-(5,5′-(3-chloro-4,5-dihydronaphtho[1,2-b]thiophene-2,7-diyl)bis(4-chloro-1H-imidazole-5,2-diyl))bis(pyrrolidine-2,1-diyl))bis(3-methyl-1-oxobutane-2,1-diyl))dicarbamate], the IC50 in experiment [1] and in experiment [2] was 0.001 to 0.999 nM each time.

`COC(=O)N[C@H](C(=O)N1C(c2ncc(-c3ccc4c(ccc5cc(-c6cnc(C7[C@H]8CC[C@H](C8)N7C(=O)[C@@H](NC(=O)OC)C(C)C)[nH]6)sc54)c3)[nH]2)[C@H]2CC[C@@H]1C2)C(C)C` (stereo partly drawn) [Compound 10, dimethyl((2S,2′S)-((1R,1′R,3S,3′S,4S,4′S)-3,3′-(5,5′-(naphtho[1,2-b]thiophene-2,7-diyl)bis(1H-imidazole-5,2-diyl))bis(2-azabicyclo[2.2.1]heptane-3,2-diyl))bis(3-methyl-1-oxobutane-2,1-diyl))dicarbamate]: the IC50 in experiment [1] and in experiment [2] was 0.001 to 0.999 nM throughout.

Consider `COC(=O)N[C@H](C(=O)N1CCC[C@H]1c1ncc(-c2ccc3c(c2)OCCc2cc(-c4cnc([C@@H]5CCCN5C(=O)[C@@H](NC(=O)OC)C(C)C)[nH]4)sc2-3)[nH]1)C(C)C` [Compound 2, dimethyl((2S,2′S)-((2S,2′S)-2,2′-(5,5′-(4,5-dihydrobenzo[b]thieno[2,3-d]oxepine-2,8-diyl)bis(1H-imidazole-5,2-diyl))bis(pyrrolidine-2,1-diyl))bis(3-methyl-1-oxobutane-2,1-diyl))dicarbamate], for which the results for the IC50 in experiment [1] and in experiment [2] were 0.001 to 0.999 nM and 1 to 100 nM, respectively.

Turning to `COC(=O)N[C@H](C(=O)N1CCC[C@H]1c1ncc(-c2ccc3c(c2)CCc2cc(-c4cnc([C@@H]5CCCN5C(=O)[C@@H](NC(=O)OC)C(C)C)[nH]4)sc2-3)[nH]1)C(C)C` [Compound 5, dimethyl((2S,2′S)-((2S,2′S)-2,2′-(5,5′-(4,5-dihydronaphtho[1,2-b]thiophene-2,7-diyl)bis(1H-imidazole-5,2-diyl))bis(pyrrolidine-2,1-diyl))bis(3-methyl-1-oxobutane-2,1-diyl))dicarbamate], the IC50 in experiment [1] and in experiment [2] was 0.001 to 0.999 nM in each case.

With `COC(=O)N[C@H](C(=O)N1CCC[C@H]1c1ncc(-c2ccc3c(c2)OCc2cc(-c4cnc([C@@H]5CCCN5C(=O)[C@@H](NC(=O)OC)C(C)C)[nH]4)sc2-3)[nH]1)C(C)C` [Compound 1, dimethyl((2S,2′S)-((2S,2′S)-2,2′-(5,5′-(4H-thieno[3,2-c]chromene-2,7-diyl)bis(1H-imidazole-5,2-diyl))bis(pyrrolidine-2,1-diyl))bis(3-methyl-1-oxobutane-2,1-diyl))dicarbamate], the concentration for half-maximal inhibition (IC50) in experiment [1] and in experiment [2] was 0.001 to 0.999 nM in each case.

As for `COC(=O)N[C@H](C(=O)N1CCC[C@H]1c1ncc(-c2ccc3c(ccc4sc(-c5cnc([C@@H]6CCCN6C(=O)[C@@H](NC(=O)OC)C(C)C)[nH]5)nc43)c2)[nH]1)C(C)C` [Compound 4, dimethyl((2S,2′S)-((2S,2′S)-2,2′-(5,5′-(naphtho[1,2-d]thiazole-2,7-diyl)bis(1H-imidazole-5,2-diyl))bis(pyrrolidine-2,1-diyl))bis(3-methyl-1-oxobutane-2,1-diyl))dicarbamate], the IC50 in experiment [1] was 0.001 to 0.999 nM; in experiment [2], greater than 100 nM.

Take `COC(=O)N[C@H](C(=O)N1CCC[C@H]1c1nc(Cl)c(-c2ccc3c(c2)OCCc2cc(-c4[nH]c([C@@H]5CCCN5C(=O)[C@@H](NC(=O)OC)C(C)C)nc4Cl)sc2-3)[nH]1)C(C)C` [Compound 3, dimethyl((2S,2′S)-((2S,2′S)-2,2′-(5,5′-(4,5-dihydrobenzo[b]thieno[2,3-d]oxepine-2,8-diyl)bis(4-chloro-1H-imidazole-5,2-diyl))bis(pyrrolidine-2,1-diyl))bis(3-methyl-1-oxobutane-2,1-diyl))dicarbamate]: the IC50 lay in the range of 0.001 to 0.999 nM in experiment [1] and 1 to 100 nM in experiment [2].

As for `COC(=O)N[C@H](C(=O)N1CCC[C@H]1c1nc(Cl)c(-c2ccc3c(c2)CCCc2cc(-c4[nH]c([C@@H]5CCCN5C(=O)[C@@H](NC(=O)OC)C(C)C)nc4Cl)sc2-3)[nH]1)C(C)C` [Compound 9, dimethyl((2S,2′S)-((2S,2′S)-2,2′-(5,5′-(5,6-dihydro-4H-benzo[6,7]cyclohepta[1,2-b]thiophene-2,8-diyl)bis(4-chloro-1H-imidazole-5,2-diyl))bis(pyrrolidine-2,1-diyl))bis(3-methyl-1-oxobutane-2,1-diyl))dicarbamate], the IC50 in experiment [1] and in experiment [2] was 0.001 to 0.999 nM throughout.

As to `COC(=O)N[C@H](C(=O)N1CCC[C@H]1c1ncc(-c2ccc3c(c2)CCCc2cc(-c4cnc([C@@H]5CCCN5C(=O)[C@@H](NC(=O)OC)C(C)C)[nH]4)sc2-3)[nH]1)C(C)C` [Compound 8, dimethyl((2S,2′S)-((2S,2′S)-2,2′-(5,5′-(5,6-dihydro-4H-benzo[6,7]cyclohepta[1,2-b]thiophene-2,8-diyl)bis(1H-imidazole-5,2-diyl))bis(pyrrolidine-2,1-diyl))bis(3-methyl-1-oxobutane-2,1-diyl))dicarbamate], the IC50 in experiment [1] and in experiment [2] was 0.001 to 0.999 nM throughout.
